How the values were obtained:
thrips = assay: Thrips kill test on isolated thrips and treated plants; assay type: in vivo
Source text: Obvious testing by using a loop and magnifier concluded that the Dragon Juice 50 kills 100% of the spider mites, even after 6 weeks in the refrigerator. […] The Inventor tested more H202 and the tea tree oil combinations.

plants = assay: Plant size, produce and plant damage in indoor and outdoor gardens; assay type: in vivo; details: more H202 and tea tree oil combinations added to the mix
Method: This product was tested in the Inventor's garden. At the time the garden was infested with spider mites and thrips. There were cob webs and major plant damage. The option was to destroy the garden. It seemed hopeless. […] Originally the solution was too strong, and it severely damaged the plants and killed every living thing on the plants as well as the plants. After going back and testing each of the ingredients separately (a few weeks at a time over the course of five years) the Inventor concluded how much of each ingredient to use per gallon. After that, the Inventor combined the sugars and started adding each ingredient while testing shelf life and refrigerator life of Dragon Juice 50. […] The concentrate variations have been tested in indoor and outdoor gardens. The results have been fantastic as all of the products produced have been getting outstanding customer approval for quality, and flavor. […] It also helps to keep the plant healthier from the stress of the concentrated oils. The salt (see below) is another last minute ingredient included after studying and talking with a state health inspector. The Inventor realized that the salt breaks down selenium in the water so the plant can use the nutrients and convert the use of sugars more effectively. As the H202 takes away microorganisms, the vitamins, and carbohydrates rebuild a healthy environment for the plants new growth. […]

With `OO` [H202, hydrogen peroxide] the effect on thrips (thrips) was “killed the thrips” and the “plant damage (leaves)” value (plants) was “started burning the leaves”.
